Results taken from US20240317711A1, “AURKA SELECTIVE DEGRADATION INDUCING COMPOUND” (UPPTHERA INC., priority 2021, published 2024).

Molecular target: T1, AURKA (Homo sapiens, UniProt O14965)
T1 construct: An MDA-MB-231 cell line was purchased from the Korea Cell Line Bank; endogenous in cells; host or cells: MDA-MB-231
T1 sequence (O14965 1-403): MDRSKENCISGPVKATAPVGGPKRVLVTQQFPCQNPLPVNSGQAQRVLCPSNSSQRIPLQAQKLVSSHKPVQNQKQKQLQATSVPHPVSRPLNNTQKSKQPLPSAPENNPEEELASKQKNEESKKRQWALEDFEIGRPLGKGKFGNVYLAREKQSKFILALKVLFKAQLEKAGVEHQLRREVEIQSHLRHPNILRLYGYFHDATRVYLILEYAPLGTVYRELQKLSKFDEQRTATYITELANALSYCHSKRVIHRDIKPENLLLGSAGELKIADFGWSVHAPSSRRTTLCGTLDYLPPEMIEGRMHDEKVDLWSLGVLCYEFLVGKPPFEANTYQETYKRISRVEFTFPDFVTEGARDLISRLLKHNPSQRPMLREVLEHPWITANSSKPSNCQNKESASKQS
Assay: Western blotting of AURKA degradation after 24 hours of compound treatment of MDA-MB-231 cell line
Assay type: cell-based
Settings: compound 0.1 μM, MDA-MB-231 cells, Western blot
Text: An MDA-MB-231 cell line was purchased from the Korea Cell Line Bank. The passage of cultured cells was maintained within P50.
For cell counting, a cell counter (Catalog #AMQAX1000) from Thermo and a 0.4% Trypan blue solution were used.
For cell culture, there were used RPMI (Gibco, Cat. No. 22400-089; Lot. No. 2323633), FBS (Gibco, Cat. No. 16000044; Lot. No. 2454168P), Penicillin/Streptomycin (PS) (Gibco, Cat. No. 15140-122; Lot. No. 2321150), 100 mm culture plate (SPL, Cat. No. 20100), 6-well culture plate (SPL, Cat. No. 30006), PBS pH7.4 (Gibco, Cat. No. 10010-023; Lot. No. 2380329), counting chamber (Hematocytometer) (Hirschmann, Cat. No. 8100204), and 0.4% trypan blue solution (DYNEBIO, Cat. No. CBT3710; Lot. No. 20211201).
3×10^5 cells were seeded in each well of a 12-well plate (SPL), and the cells were cultured in a total culture medium volume of 1 mL. […]
Next, a standard curve was obtained using the BCA assay and the protein mass in the lysate was quantified by substituting the obtained standard curve. The mixture was incubated at 37° C. for 30 minutes using 20 μL of a standard or sample solution and 200 μL of a BCA or Bradford solution, and absorbance was measured at 562 nm. […]

O=C1CCC(N2C(=O)c3cccc(NCCCCCCN4CCN(C(=O)Cc5ccc(Nc6ncc(F)c(Nc7ccc(C(=O)Nc8ccccc8Cl)cc7)n6)cc5)CC4)c3C2=O)C(=O)N1 (stereo not shown) [Compound 14]
AURKA protein degradation activity: ≥ 95%
